Results on 15 compounds are retold here after US20240208992A1, “MACROCYCLES AS CFTR MODULATORS” (Idorsia Pharmaceuticals Ltd, priority 2021, published 2024).

SMILES strings stand for the structures.

In this test the target is human F508del-CFTR (Homo sapiens, UniProt P13569, DEL508-508). The experiment in a line: F508del-CFTR cell surface expression (corrector activity), DiscoveRx ß-galactosidase complementation chemiluminescence assay in recombinant U2OS cell line.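 On all read-outs here: U2OS cells co-expressing ProLink-tagged F508del-CFTR and a membrane-anchored enzyme acceptor, where more surface CFTR restores β-galactosidase activity measured by chemiluminescence.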 To be noted: U2OS cell line, 16h compound incubation; for EC50: EC50, F508del-CFTR cell surface expression, geomean values; for Emax: U2OS, in relation to the Emax of the corrector lumacaftor (=100%), arithmetic mean values.
Chain of human F508del-CFTR (P13569 with tags, fused parts or gaps DEL508-508): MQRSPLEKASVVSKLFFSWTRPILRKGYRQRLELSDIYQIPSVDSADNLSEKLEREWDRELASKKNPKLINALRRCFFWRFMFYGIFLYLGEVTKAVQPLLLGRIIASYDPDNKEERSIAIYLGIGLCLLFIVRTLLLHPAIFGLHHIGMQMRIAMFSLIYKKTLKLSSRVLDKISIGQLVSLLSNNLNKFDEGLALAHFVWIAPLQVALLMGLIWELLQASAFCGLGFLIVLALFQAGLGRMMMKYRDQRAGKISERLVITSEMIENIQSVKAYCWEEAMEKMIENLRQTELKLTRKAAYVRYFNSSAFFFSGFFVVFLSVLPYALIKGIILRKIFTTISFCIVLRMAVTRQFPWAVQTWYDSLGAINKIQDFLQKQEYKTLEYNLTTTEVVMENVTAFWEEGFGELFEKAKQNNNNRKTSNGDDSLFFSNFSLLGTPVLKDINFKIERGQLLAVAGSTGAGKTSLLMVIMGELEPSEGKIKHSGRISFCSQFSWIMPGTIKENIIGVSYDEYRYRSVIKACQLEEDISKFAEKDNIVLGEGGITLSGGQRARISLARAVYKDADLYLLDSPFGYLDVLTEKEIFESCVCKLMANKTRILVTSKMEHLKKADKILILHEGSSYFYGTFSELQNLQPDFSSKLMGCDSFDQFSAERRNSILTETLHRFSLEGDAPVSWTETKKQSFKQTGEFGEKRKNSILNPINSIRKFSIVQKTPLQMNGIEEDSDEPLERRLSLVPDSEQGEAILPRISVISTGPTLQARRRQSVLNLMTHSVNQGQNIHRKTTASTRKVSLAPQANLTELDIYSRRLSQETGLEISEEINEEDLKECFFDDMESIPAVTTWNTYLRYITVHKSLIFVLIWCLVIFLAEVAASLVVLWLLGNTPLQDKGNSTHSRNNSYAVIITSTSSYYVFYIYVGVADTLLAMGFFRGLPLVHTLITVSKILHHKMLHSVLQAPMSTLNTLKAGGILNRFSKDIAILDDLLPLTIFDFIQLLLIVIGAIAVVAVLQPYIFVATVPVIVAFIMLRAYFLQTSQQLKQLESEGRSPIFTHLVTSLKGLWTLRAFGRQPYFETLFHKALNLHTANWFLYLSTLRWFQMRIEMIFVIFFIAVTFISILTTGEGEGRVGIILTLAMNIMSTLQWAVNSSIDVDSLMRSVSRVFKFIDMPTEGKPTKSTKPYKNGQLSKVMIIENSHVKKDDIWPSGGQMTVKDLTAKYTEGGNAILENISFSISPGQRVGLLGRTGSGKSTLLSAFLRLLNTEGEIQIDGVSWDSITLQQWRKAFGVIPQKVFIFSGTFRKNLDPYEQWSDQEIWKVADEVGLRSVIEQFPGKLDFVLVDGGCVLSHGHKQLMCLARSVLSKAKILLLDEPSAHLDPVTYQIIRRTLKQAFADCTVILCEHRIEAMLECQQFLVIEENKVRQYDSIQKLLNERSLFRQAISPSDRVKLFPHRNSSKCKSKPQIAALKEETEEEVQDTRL

For the compound `COc1cccc(CCNC(=O)[C@@H]2CC(=O)N(C)[C@@H](CC(C)C)C(=O)N3CCN(C4CCC4)C[C@@H]3C(=O)N[C@H](Cc3ccccc3)COc3ccc4ccccc4c3C(=O)N2)c1` [Example 355, (4aR,7R,18S,22S)-7-benzyl-3-cyclobutyl-22-isobutyl-N-(3-methoxyphenethyl)-21-methyl-5,16,20,23-tetraoxo-2,3,4,4a,5,6,7,8,16,17,18,19,20,21,22,23-hexadecahydro-1H-naphtho[1,2-p]pyrazino[2,1-f][1]oxa[4,7,10,14]tetraazacycloheptadecine-18-carboxamide], the concentration giving a half-maximal response (EC50) stood at 87 nM and the Emax came out at 307%.

For the compound `COc1cccc(CCNC(=O)[C@@H]2CC(=O)N(C)[C@@H](CC(C)C)C(=O)N3CCN(C4CC4)C[C@@H]3C(=O)N[C@H](Cc3ccccc3)COc3ccc4ccccc4c3C(=O)N2)c1` [Example 356, (4aR,7R,18S,22S)-7-benzyl-3-cyclopropyl-22-isobutyl-N-(3-methoxyphenethyl)-21-methyl-5,16,20,23-tetraoxo-2,3,4,4a,5,6,7,8,16,17,18,19,20,21,22,23-hexadecahydro-1H-naphtho[1,2-p]pyrazino[2,1-f][1]oxa[4,7,10,14]tetraazacycloheptadecine-18-carboxamide], the EC50 is 167 nM and the Emax is 353%.

Take `COc1cccc(CCNC(=O)[C@@H]2CC(=O)N(C)[C@@H](CC(C)C)C(=O)N3CCN(C4CC4)C[C@H]3C(=O)N[C@H](Cc3ccccc3)COc3ccc4ccccc4c3C(=O)N2)c1` [Example 357, (4aS,7R,18S,22S)-7-benzyl-3-cyclopropyl-22-isobutyl-N-(3-methoxyphenethyl)-21-methyl-5,16,20,23-tetraoxo-2,3,4,4a,5,6,7,8,16,17,18,19,20,21,22,23-hexadecahydro-1H-naphtho[1,2-p]pyrazino[2,1-f][1]oxa[4,7,10,14]tetraazacycloheptadecine-18-carboxamide]: the 50% effective concentration (EC50) was found to be 475 nM and the Emax is 124%.

Turning to `CN1C(=O)C[C@@H](C(=O)NCCc2ccc3c(c2)OCO3)NC(=O)c2c(ccc3ccccc23)OC[C@@H](Cc2ccccc2)NC(=O)CN(CC[C@@H]2CCCCO2)C(=O)[C@@H]1CC1CC1` [Example 358, (3S,7S,13R)-N-(2-(benzo[d][1,3]dioxol-5-yl)ethyl)-13-benzyl-7-(cyclopropylmethyl)-6-methyl-1,5,8,11-tetraoxo-9-(2-((S)-tetrahydro-2H-pyran-2-yl)ethyl)-1,2,3,4,5,6,7,8,9,10,11,12,13,14-tetradecahydronaphtho[1,2-p][1]oxa[4,7,10,14]tetraazacycloheptadecine-3-carboxamide], the EC50 was 411 nM and the maximal effect (Emax) was found to be 171%.

As for `CN1C(=O)C[C@@H](C(=O)NCCc2ccc3c(c2)OCO3)NC(=O)c2c(ccc3ccccc23)OC[C@@H](Cc2ccccc2)NC(=O)CN(CC[C@H]2CCCCO2)C(=O)[C@@H]1CC1CC1` [Example 359, (3S,7S,13R)-N-(2-(benzo[d][1,3]dioxol-5-yl)ethyl)-13-benzyl-7-(cyclopropylmethyl)-6-methyl-1,5,8,11-tetraoxo-9-(2-((R)-tetrahydro-2H-pyran-2-yl)ethyl)-1,2,3,4,5,6,7,8,9,10,11,12,13,14-tetradecahydronaphtho[1,2-p][1]oxa[4,7,10,14]tetraazacycloheptadecine-3-carboxamide], the EC50 was 318 nM and the Emax turned out to be 144%.

Take `CN1C(=O)C[C@@H](C(=O)NCCc2ccc3c(c2)OCO3)NC(=O)c2c(ccc3ccccc23)OC[C@@H](Cc2ccccc2)NC(=O)CN(CC[C@@H]2CCCCO2)C(=O)[C@@H]1CC1CCC1` [Example 360, (3S,7S,13R)-N-(2-(benzo[d][1,3]dioxol-5-yl)ethyl)-13-benzyl-7-(cyclobutylmethyl)-6-methyl-1,5,8,11-tetraoxo-9-(2-((S)-tetrahydro-2H-pyran-2-yl)ethyl)-1,2,3,4,5,6,7,8,9,10,11,12,13,14-tetradecahydronaphtho[1,2-p][1]oxa[4,7,10,14]tetraazacycloheptadecine-3-carboxamide]: the EC50 turned out to be 184 nM and the Emax was 224%.

Consider `CN1C(=O)C[C@@H](C(=O)NCCc2ccc3c(c2)OCO3)NC(=O)c2c(ccc3ccccc23)OC[C@@H](Cc2ccccc2)NC(=O)CN(CC[C@H]2CCCCO2)C(=O)[C@@H]1CC1CCC1` [Example 361, (3S,7S,13R)-N-(2-(benzo[d][1,3]dioxol-5-yl)ethyl)-13-benzyl-7-(cyclobutylmethyl)-6-methyl-1,5,8,11-tetraoxo-9-(2-((R)-tetrahydro-2H-pyran-2-yl)ethyl)-1,2,3,4,5,6,7,8,9,10,11,12,13,14-tetradecahydronaphtho[1,2-p][1]oxa[4,7,10,14]tetraazacycloheptadecine-3-carboxamide], for which the concentration for a half-maximal effect (EC50) is 264 nM and the Emax amounted to 183%.

In the case of `CC(C)C[C@H]1C(=O)N(CC[C@@H]2CCCCO2)CC(=O)N[C@H](Cc2ccccc2)COc2ccc3ccccc3c2C(=O)N[C@H](C(=O)NCCc2ccc3c(c2)OCO3)CC(=O)N1C` [Example 362, (3S,7S,13R)-N-(2-(benzo[d][1,3]dioxol-5-yl)ethyl)-13-benzyl-7-isobutyl-6-methyl-1,5,8,11-tetraoxo-9-(2-((S)-tetrahydro-2H-pyran-2-yl)ethyl)-1,2,3,4,5,6,7,8,9,10,11,12,13,14-tetradecahydronaphtho[1,2-p][1]oxa[4,7,10,14]tetraazacycloheptadecine-3-carboxamide], the EC50 came to 153 nM and the maximum response (Emax) came out at 247%.

Turning to `CC(C)C[C@H]1C(=O)N(CC[C@H]2CCCCO2)CC(=O)N[C@H](Cc2ccccc2)COc2ccc3ccccc3c2C(=O)N[C@H](C(=O)NCCc2ccc3c(c2)OCO3)CC(=O)N1C` [Example 363], the EC50 worked out at 252 nM and the maximal response (Emax) is 230%.

Turning to `COc1cccc(CCNC(=O)[C@@H]2CC(=O)N(C)[C@@H](CC(C)C)C(=O)N3CCN(CC(C)C)C[C@@H]3C(=O)N[C@H](Cc3ccccc3)COc3ccc4ncn(C)c4c3C(=O)N2)c1` [Example 364, (8S,12S,18aR,21R)-21-benzyl-12,17-diisobutyl-N-(3-methoxyphenethyl)-5,11-dimethyl-6,10,13,19-tetraoxo-6,7,8,9,10,11,12,13,16,17,18,18a,19,20,21,22-hexadecahydro-5H,15H-imidazo[4′,5′:5,6]benzo[1,2-p]pyrazino[2,1-f][1]oxa[4,7,10,14]tetraazacycloheptadecine-8-carboxamide], the half-maximal effective concentration (EC50) stood at 264 nM and the maximal effect (Emax) amounted to 201%.

On to `COc1cccc(CCNC(=O)[C@@H]2CC(=O)N(C)[C@@H](CC(C)C)C(=O)N3CCCC[C@@H]3C(=O)N[C@H](Cc3ccccc3)COc3cnc4ccccc4c3C(=O)N2)c1` [Example 365, (9S,13S,19aR,22R)-22-benzyl-13-isobutyl-N-(3-methoxyphenethyl)-12-methyl-7,11,14,20-tetraoxo-7,8,9,10,11,12,13,14,17,18,19,19a,20,21,22,23-hexadecahydro-16H-pyrido[2′,1′:6,7][1]oxa[4,7,10,14]tetraazacycloheptadecino[17,16-c]quinoline-9-carboxamide], for which the concentration giving a half-maximal response (EC50) worked out at 398 nM and the Emax turned out to be 387%.

Turning to `COc1cccc(CCNC(=O)[C@@H]2CC(=O)N(C)[C@@H](CC(C)C)C(=O)N3CCCC[C@H]3C(=O)N[C@H](Cc3ccccc3)COc3cnc4ccccc4c3C(=O)N2)c1` [Example 366, (9S,13S,19aS,22R)-22-benzyl-13-isobutyl-N-(3-methoxyphenethyl)-12-methyl-7,11,14,20-tetraoxo-7,8,9,10,11,12,13,14,17,18,19,19a,20,21,22,23-hexadecahydro-16H-pyrido[2′,1′:6,7][1]oxa[4,7,10,14]tetraazacycloheptadecino[17,16-c]quinoline-9-carboxamide], the half-maximal effective concentration (EC50) was 265 nM and the Emax is 172%.

In the case of `Cc1cc(CCNC(=O)[C@@H]2CC(=O)N(C)[C@@H](CC(C)C)C(=O)N3CCCC[C@@H]3C(=O)N[C@H](Cc3ccccc3)COc3cnc4ccccc4c3C(=O)N2)on1` [Example 367, (9S,13S,19aR,22R)-22-benzyl-13-isobutyl-12-methyl-N-(2-(3-methylisoxazol-5-yl)ethyl)-7,11,14,20-tetraoxo-7,8,9,10,11,12,13,14,17,18,19,19a,20,21,22,23-hexadecahydro-16H-pyrido[2′,1′:6,7][1]oxa[4,7,10,14]tetraazacycloheptadecino[17,16-c]quinoline-9-carboxamide], the half-maximal effective concentration (EC50) was determined as 249 nM and the Emax turned out to be 321%.

On to `COc1cc(CCNC(=O)[C@@H]2CC(=O)N(C)[C@@H](CC(C)C)C(=O)N3CCCC[C@@H]3C(=O)N[C@H](Cc3ccccc3)COc3ccc4oc(C)nc4c3C(=O)N2)cc(OC)c1` [Example 368, (8S,12S,18aR,21R)-21-benzyl-N-(3,5-dimethoxyphenethyl)-12-isobutyl-4,11-dimethyl-6,10,13,19-tetraoxo-6,7,8,9,10,11,12,13,16,17,18,18a,19,20,21,22-hexadecahydro-15H-oxazolo[5′,4′:5,6]benzo[1,2-p]pyrido[2,1-f][1]oxa[4,7,10,14]tetraazacycloheptadecine-8-carboxamide], for which the EC50 is 918 nM and the Emax was 147%.

Consider `COc1cccc(CCNC(=O)[C@@H]2CC(=O)N(C)[C@@H](CC(C)C)C(=O)N3CCN(C(=O)OCC(Cl)(Cl)Cl)C[C@@H]3C(=O)N[C@H](Cc3ccccc3)COc3ccc4ccccc4c3C(=O)N2)c1` [Example 369, 2,2,2-trichloroethyl (4aR,7R,18S,22S)-7-benzyl-22-isobutyl-18-((3-methoxyphenethyl)carbamoyl)-21-methyl-5,16,20,23-tetraoxo-1,2,4,4a,5,6,7,8,16,17,18,19,20,21,22,23-hexadecahydro-3H-naphtho[1,2-p]pyrazino[2,1-f][1]oxa[4,7,10,14]tetraazacycloheptadecine-3-carboxylate], for which the 50% effective concentration (EC50) is 107 nM and the Emax was determined as 243%.
